Values after ≈ are worked out from the molar mass of the structure shown. A value given as a limit tells only on which side of the number the result lay.

What all share (test): ≥ marks a high value that may be exact or a test limit, other limits are often not marked, values filed in µg/mL are converted to µM
Assay [1] concerns Escherichia coli DH5alpha.
In assay [2] the test system is Bacillus subtilis DSM 347.
Assay [3] concerns Franconibacter helveticus DSM 18396.
Assay [4] has as its system Kocuria rhizophila DSM 348.
In assay [5] the test system is Lactococcus lactis AS1.1690.
The test system of assay [6] is Pseudomonas aeruginosa CGMCC 1.860.
The test system of assay [7] is Acinetobacter baumannii CICC 22934.
Assay [8] relates to Staphylococcus aureus AS1.72.
Assay [9] relates to Enterococcus faecalis CGMCC 1.595.
For the next assay, the system named is Bacillus cereus AS1.126.
The next assay has as its system Escherichia coli AS1.349.
The subject of assay [10] is Enterococcus faecium CGMCC 1.2334.
In assay [11] the test system is Klebsiella aerogenes CGMCC 1.876.
For assay [12], the system named is Staphylococcus epidermidis CICC 23664.
The test system of assay [13] is Klebsiella pneumoniae subsp. pneumoniae CGMCC 1.176.
Assay [14] deals with Enterobacter cloacae CGMCC 1.58.

In the case of `CC[C@H](C)[C@H](NC(=O)CN)C(=O)NCC(=O)N[C@@H](CCCCN)C(=O)N[C@@H](Cc1ccccc1)C(=O)N[C@@H](CC(C)C)C(=O)N[C@@H](Cc1cnc[nH]1)C(=O)N[C@@H](CO)C(=O)N[C@@H](C)C(=O)N[C@@H](CCCCN)C(=O)N[C@@H](CCCCN)C(=O)N[C@@H](C)C(=O)NCC(=O)N[C@@H](CCCCN)C(=O)N[C@@H](C)C(=O)N[C@@H](Cc1ccccc1)C(=O)N[C@H](C(=O)NCC(=O)N[C@@H](CCC(=O)O)C(=O)N[C@H](C(=O)N[C@@H](CCSC)C(=O)N[C@@H](CC(N)=O)C(=O)N[C@@H](CO)C(=O)O)[C@@H](C)CC)C(C)C` [GIGKFLHSAKKAGKAFVGEIMNS], the MIC is ≥ 64 µM in assay [1], 8 µM (≈ 19.1 µg/mL) in assay [2], ≥ 64 µM in [3] and ≥ 64 µM in assay [4].
`CC[C@H](C)[C@H](NC(=O)CN)C(=O)NCC(=O)N[C@@H](CCCCN)C(=O)N[C@@H](Cc1ccccc1)C(=O)N[C@@H](CC(C)C)C(=O)N[C@@H](Cc1cnc[nH]1)C(=O)N[C@@H](CO)C(=O)N[C@@H](C)C(=O)N[C@@H](CCCCN)C(=O)N[C@@H](CCCCN)C(=O)N[C@@H](Cc1ccccc1)C(=O)NCC(=O)N[C@@H](CCCCN)C(=O)N[C@@H](C)C(=O)N[C@@H](Cc1ccccc1)C(=O)N[C@H](C(=O)N[C@@H](C)C(=O)N[C@@H](CCC(=O)O)C(=O)N[C@H](C(=O)N[C@@H](CCSC)C(=O)N[C@@H](CC(N)=O)C(=O)N[C@@H](CO)C(=O)O)[C@@H](C)CC)C(C)C` [GIGKFLHSAKKFGKAFVAEIMNS]: the MIC in [1] came out at 16 µM (≈ 39.7 µg/mL); in assay [2], 1 µM (≈ 2.48 µg/mL); in [3], 8 µM (≈ 19.8 µg/mL); in [4], 8 µM (≈ 19.8 µg/mL).
With `CC(C)[C@H](NC(=O)[C@H](CCCCN)NC(=O)[C@@H](N)CO)C(=O)N[C@@H](Cc1c[nH]c2ccccc12)C(=O)N[C@@H](CCCN=C(N)N)C(=O)N[C@@H](Cc1cnc[nH]1)C(=O)N[C@@H](Cc1c[nH]c2ccccc12)C(=O)N[C@@H](CCCN=C(N)N)C(=O)N[C@@H](CCCN=C(N)N)C(=O)N[C@@H](Cc1ccccc1)C(=O)N[C@@H](Cc1c[nH]c2ccccc12)C(=O)N[C@@H](Cc1cnc[nH]1)C(=O)N[C@@H](CCCN=C(N)N)C(=O)N[C@@H](C)C(=O)N[C@@H](Cc1cnc[nH]1)C(=O)N[C@@H](CCCN=C(N)N)C(=O)N[C@@H](CCCCN)C(=O)N[C@@H](CCCCN)C(=O)O` [SKVWRHWRRFWHRAHRKK], the MIC was determined as 1.98 µM (≈ 5.06 µg/mL) in [5]; 1.59 µM (≈ 4.07 µg/mL) in assay [6]; 7.81 µM (≈ 20 µg/mL) in [7]; 3.86 µM (≈ 9.87 µg/mL) in assay [8]; 1.81 µM (≈ 4.63 µg/mL) in [9]; 3.91 µM (≈ 10 µg/mL) against Bacillus cereus AS1.126. For the same compound, the MIC was 6.25 µM (≈ 16 µg/mL) in the assay on Escherichia coli AS1.349; 2.9 µM (≈ 7.42 µg/mL) in [10]; ≥ 100 µM in [11]; 7 µM (≈ 17.9 µg/mL) in assay [12]; ≥ 100 µM in assay [13]; ≥ 100 µM in assay [14].

As a reminder, the MIC is the smallest concentration in the dilution series that meets the test's criterion for growth inhibition.
